Test results as given in PubChem BioAssay AID248 (DTP/NCI, 2004).
“And” between values parts separate entries of the source, which are not always exact repeats. Equal entries are not always repeated. Inconclusive results and toxic doses are left out. Rule as the data show it: active = T/C of 150% or more; inactive = T/C below 125%.

Tested on: L1210 leukemia ip in BDF1 mice, survival T/C
Experiment: NCI In Vivo Anticancer Drug Screen. Data for tumor model L1210 Leukemia (intraperitoneal) in B6D2F1 (BDF1) mice
Settings: endpoint: mean survival time, higher = longer survival
Outline: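 Tumor was transplanted into mice, which were then dosed with test compound or vehicle alone. Survival was recorded for each group, and the treated figure was expressed relative to the control figure.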

[1] = dose: 100.0 mg/kg/injection, schedule: Q01DX009 (ip), vehicle: saline with Tween-80
[2] = dose: 200.0 mg/kg/injection, schedule: Q01DX009 (ip), vehicle: saline with Tween-80
[3] = dose: 100.0 mg/kg/injection, schedule: Q01DX001 (ip), vehicle: saline
[4] = dose: 400.0 mg/kg/injection, schedule: Q01DX001 (ip), vehicle: saline

Measured: T/C

COc1ccc([N+](=O)[O-])cc1NC(=O)c1ccc2c(c1)C(=O)OC2=O
inactive: dose: 6.25 mg/kg/injection, schedule: Q01DX009 (ip), vehicle: gum acacia 93 % of control | dose: 12.5 mg/kg/injection, schedule: Q01DX009 (ip), vehicle: gum acacia 88 % of control | dose: 25.0 mg/kg/injection, schedule: Q01DX009 (ip), vehicle: gum acacia 87 % of control | dose: 50.0 mg/kg/injection, schedule: Q01DX009 (ip), vehicle: gum acacia 86 % of control | dose: 200.0 mg/kg/injection, schedule: Q01DX009 (ip), vehicle: gum acacia 88 % of control

CN(C)c1ccc(NC(=S)Nc2ccc(N(C)C)cc2)cc1
inactive: dose: 400.0 mg/kg/injection, schedule: Q01DX001 (ip), vehicle: saline with Tween-80 88 % of control

Cc1c(C)c([N+](=O)[O-])c(/C=C/C(=O)O)c(C)c1[N+](=O)[O-]
inactive: dose: 100.0 mg/kg/injection, schedule: Q04DX003 (ip), vehicle: Klucel (hydroxypropylcellulose) (HPC) 97 % of control | dose: 200.0 mg/kg/injection, schedule: Q04DX003 (ip), vehicle: Klucel (hydroxypropylcellulose) (HPC) 86 % of control

CCCCNC(=O)CC(C)C(=O)O (configuration not stated)
inactive: [1] 100 % of control | [2] 98 % of control | dose: 400.0 mg/kg/injection, schedule: Q01DX009 (ip), vehicle: saline with Tween-80 100 % of control

NC(N)=N/N=C/c1cccc(Cl)c1Cl
inactive: dose: 7.5 mg/kg/injection, schedule: Q01DX Z (ip), vehicle: other 97 % of control | dose: 15.0 mg/kg/injection, schedule: Q01DX Z (ip), vehicle: other 100 % of control | dose: 30.0 mg/kg/injection, schedule: Q01DX Z (ip), vehicle: other 92 % of control | dose: 60.0 mg/kg/injection, schedule: Q01DX Z (ip), vehicle: other 86 % of control

O=S1(=O)N=C(c2ccccc2)CC(c2ccccc2)N1 (configuration not stated)
inactive: dose: 25.0 mg/kg/injection, schedule: Q01DX009 (ip), vehicle: saline with Tween-80 87 % of control | dose: 50.0 mg/kg/injection, schedule: Q01DX009 (ip), vehicle: saline with Tween-80 96 % of control | dose: 50.0 mg/kg/injection, schedule: Q04DX003 (ip), vehicle: saline with Tween-80 98 % of control | [1] 94 % of control | dose: 100.0 mg/kg/injection, schedule: Q04DX003 (ip), vehicle: saline with Tween-80 93 % of control | [2] 93 % of control | dose: 200.0 mg/kg/injection, schedule: Q04DX003 (ip), vehicle: saline with Tween-80 86 % of control

O=C(O)C(=O)NCc1cnccn1
inactive: dose: 25.0 mg/kg/injection, schedule: Q01DX009 (ip), vehicle: water 96 % of control | dose: 50.0 mg/kg/injection, schedule: Q01DX009 (ip), vehicle: water 97 % of control | dose: 100.0 mg/kg/injection, schedule: Q04DX003 (ip), vehicle: water 96 % of control

O=C(COc1ccc(Cl)cc1Cl)OCCOCCOCCOCCOCCOCCOCCOCCOCCOCCOCCOCCOCCO
inactive: dose: 100.0 mg/kg/injection, schedule: Q01DX009 (ip), vehicle: Klucel (hydroxypropylcellulose) (HPC) 101 % of control | dose: 200.0 mg/kg/injection, schedule: Q01DX009 (ip), vehicle: Klucel (hydroxypropylcellulose) (HPC) 101 % of control | dose: 400.0 mg/kg/injection, schedule: Q01DX009 (ip), vehicle: Klucel (hydroxypropylcellulose) (HPC) 98 % of control

O=C(N/N=C/c1c(Cl)cccc1Cl)C1CCCO1 (configuration not stated)
inactive: dose: 6.25 mg/kg/injection, schedule: Q01DX009 (ip), vehicle: Klucel (hydroxypropylcellulose) (HPC) 96 % of control | dose: 12.5 mg/kg/injection, schedule: Q01DX009 (ip), vehicle: Klucel (hydroxypropylcellulose) (HPC) 96 % of control | dose: 25.0 mg/kg/injection, schedule: Q01DX009 (ip), vehicle: Klucel (hydroxypropylcellulose) (HPC) 95 % of control and 91 % of control

O=C(O)C(F)(F)C(F)(Cl)C(F)(F)C(F)(Cl)C(F)(F)C(F)(Cl)C(F)(F)Cl (configuration not stated)
inactive: [3] 96 % of control and 90 % of control | dose: 200.0 mg/kg/injection, schedule: Q01DX001 (ip), vehicle: saline 110 % of control and 93 % of control | [4] 107 % of control

Cc1c2c(ccc3ccccc32)c[n+]2ccccc12
inactive: dose: 1.1 mg/kg/injection, schedule: Q01DX009 (ip), vehicle: saline 97 % of control | dose: 1.1 mg/kg/injection, schedule: Q03HX024 (ip), vehicle: saline 98 % of control | dose: 1.7 mg/kg/injection, schedule: Q01DX009 (ip), vehicle: saline 105 % of control | dose: 1.7 mg/kg/injection, schedule: Q03HX024 (ip), vehicle: saline 100 % of control | dose: 1.8 mg/kg/injection, schedule: Q01DX Z (ip), vehicle: methylcellulose (MC) 116 % of control | dose: 2.0 mg/kg/injection, schedule: Q01DX009 (ip), vehicle: saline 96 % of control | dose: 2.5 mg/kg/injection, schedule: Q01DX Z (ip), vehicle: carboxymethylcellulose (CMC) 105 % of control | dose: 2.6 mg/kg/injection, schedule: Q01DX009 (ip), vehicle: saline 102 % of control | dose: 2.6 mg/kg/injection, schedule: Q03HX024 (ip), vehicle: saline 108 % of control | dose: 2.7 mg/kg/injection, schedule: Q01DX Z (ip), vehicle: methylcellulose (MC) 105 % of control | dose: 3.0 mg/kg/injection, schedule: Q01DX009 (ip), vehicle: saline 108 % of control | dose: 4.0 mg/kg/injection, schedule: Q01DX009 (ip), vehicle: saline 103 % of control | dose: 4.0 mg/kg/injection, schedule: Q01DX Z (ip), vehicle: methylcellulose (MC) 107 % of control | dose: 4.0 mg/kg/injection, schedule: Q03HX024 (ip), vehicle: saline 98 % of control | dose: 4.4 mg/kg/injection, schedule: Q01DX Z (ip), vehicle: methylcellulose (MC) 119 % of control | dose: 4.5 mg/kg/injection, schedule: Q01DX009 (ip), vehicle: saline 108 % of control | dose: 5.0 mg/kg/injection, schedule: Q01DX001 (ip), vehicle: carboxymethylcellulose (CMC) 100 % of control | dose: 5.0 mg/kg/injection, schedule: Q01DX Z (ip), vehicle: carboxymethylcellulose (CMC) 119 % of control | dose: 6.0 mg/kg/injection, schedule: Q01DX009 (ip), vehicle: saline 105 % of control and 107 % of control | dose: 6.0 mg/kg/injection, schedule: Q03HX024 (ip), vehicle: saline 104 % of control and 106 % of control | dose: 6.25 mg/kg/injection, schedule: Q04DX003 (ip), vehicle: saline 104 % of control | dose: 6.6 mg/kg/injection, schedule: Q01DX Z (ip), vehicle: methylcellulose (MC) 121 % of control | dose: 9.0 mg/kg/injection, schedule: Q01DX009 (ip), vehicle: saline 107 % of control | dose: 10.0 mg/kg/injection, schedule: Q01DX001 (ip), vehicle: carboxymethylcellulose (CMC) 107 % of control | dose: 11.0 mg/kg/injection, schedule: Q01DX001 (ip), vehicle: saline 109 % of control | dose: 11.0 mg/kg/injection, schedule: Q04DX003 (ip), vehicle: saline 107 % of control | dose: 12.5 mg/kg/injection, schedule: Q04DX003 (ip), vehicle: saline 108 % of control | dose: 13.0 mg/kg/injection, schedule: Q01DX009 (ip), vehicle: saline 111 % of control | dose: 15.0 mg/kg/injection, schedule: Q01DX Z (ip), vehicle: methylcellulose (MC) 97 % of control | dose: 17.0 mg/kg/injection, schedule: Q01DX001 (ip), vehicle: saline 110 % of control | dose: 17.0 mg/kg/injection, schedule: Q04DX003 (ip), vehicle: saline 105 % of control | dose: 20.0 mg/kg/injection, schedule: Q01DX001 (ip), vehicle: carboxymethylcellulose (CMC) 105 % of control | dose: 20.0 mg/kg/injection, schedule: Q01DX009 (ip), vehicle: saline 123 % of control | dose: 26.0 mg/kg/injection, schedule: Q01DX001 (ip), vehicle: saline 107 % of control | dose: 26.0 mg/kg/injection, schedule: Q04DX003 (ip), vehicle: saline 112 % of control

NCc1ccccn1
inactive: [3] 98 % of control | [4] 95 % of control

COC(=O)C(=O)CC(=O)c1ccc([N+](=O)[O-])cc1
inactive: dose: 100.0 mg/kg/injection, schedule: Q04DX002 (ip), vehicle: Klucel (hydroxypropylcellulose) (HPC) 95 % of control | dose: 200.0 mg/kg/injection, schedule: Q04DX002 (ip), vehicle: Klucel (hydroxypropylcellulose) (HPC) 95 % of control | dose: 400.0 mg/kg/injection, schedule: Q04DX002 (ip), vehicle: Klucel (hydroxypropylcellulose) (HPC) 103 % of control

O=[N+]([O-])c1c(Cl)cc(Cl)c([N+](=O)[O-])c1-c1ccccc1
inactive: dose: 100.0 mg/kg/injection, schedule: Q01DX001 (ip), vehicle: carboxymethylcellulose (CMC) 96 % of control | dose: 200.0 mg/kg/injection, schedule: Q01DX001 (ip), vehicle: carboxymethylcellulose (CMC) 96 % of control | dose: 400.0 mg/kg/injection, schedule: Q01DX001 (ip), vehicle: carboxymethylcellulose (CMC) 107 % of control
